Measurements published in ChEMBL document CHEMBL3885861, “Open TG-GATES”.

Organism: Rattus norvegicus
Experiment: Open TG-GATES - Regimen: Daily Repeat
Assay type: toxicity, organism-based, Sprague-Dawley
Parameters: regimen Daily Repeat, gender Male, age 6 weeks
Details: in vivo, po, route gavage; for APTT / Bas / Eos / Fbg / Hb / Ht / Lym / MCH / MCHC / MCV / Mono / Neu / PT / Plat / RBC / Ret / WBC: tissue Blood; for KIDNEY_L / KIDNEY_R / KIDNEY_TOTAL: tissue Kidney; for LIVER: tissue Liver; for A/G / ALP / ALT / AST / BUN / CRE / Ca / Cl / DBIL / GLC / IP / K / LDH / Na / PL / RALB / TBIL / TC / TG / TP / gamma-GTP: tissue Plasma
[1] = 0 mg/kg, 72 h, dose level Control, time 3 day
[2] = 0 mg/kg, […], dose level Control, time 7 day
[3] = 0 mg/kg, […], dose level Control, time 14 day
[4] = 0 mg/kg, […], dose level Control, time 28 day
[5] = 3 mg/kg, 72 h, dose level Low, time 3 day
[6] = 3 mg/kg, […], dose level Low, time 7 day
[7] = 3 mg/kg, […], dose level Low, time 14 day
[8] = 3 mg/kg, […], dose level Low, time 28 day

## Nc1c2c(nc3ccccc13)CCCC2 [TACRINE]
[1]
  TERMINAL_BW: 222.7 g
  APTT: 21.1 s
  Bas: 0%
  Eos: 1.2%
  Fbg: 304 mg/dL
  Hb: 13.6 g/dL
  Ht: 38.7%
  Lym: 80%
  MCH: 21.1 pg
  MCHC: 35%
  MCV: 60.4 fL
  Mono: 3%
  Neu: 14.8%
  PT: 16.8 s
  Plat: 125.8 x10_4/uL
  RBC: 641.8 x10_4/ul
  Ret: 6.4%
  WBC: 108.4 x10_2/uL
  KIDNEY_L: 0.9 g
  KIDNEY_R: 1 g
  KIDNEY_TOTAL: 1.9 g
  LIVER: 10.2 g
  A/G: 1.3
  ALP: 1665.8 IU/L
  ALT: 51.6 IU/L
  AST: 79 IU/L
  BUN: 17.4 mg/dL
  CRE: 0.2 mg/dL
  Ca: 10.9 mg/dL
  Cl: 107.2 meq/L
  DBIL: 0.002 mg/dL
  GLC: 200.2 mg/dL
  IP: 7.4 mg/dL
  K: 4.4 meq/L
  LDH: 264 IU/L
  Na: 142.8 meq/L
  PL: 158.4 mg/dL
  RALB: 3.1 g/dL
  TBIL: 0.01 mg/dL
  TC: 72.8 mg/dL
  TG: 132.8 mg/dL
  TP: 5.6 g/dL
  gamma-GTP: 1 IU/L
[2]
  TERMINAL_BW: 252.2 g
  APTT: 21.6 s
  Bas: 0%
  Eos: 1%
  Fbg: 289 mg/dL
  Hb: 13.5 g/dL
  Ht: 38.4%
  Lym: 85%
  MCH: 21.2 pg
  MCHC: 35.2%
  MCV: 60.1 fL
  Mono: 2.2%
  Neu: 11%
  PT: 16.3 s
  Plat: 122.6 x10_4/uL
  RBC: 639.4 x10_4/ul
  Ret: 5.5%
  WBC: 142.5 x10_2/uL
  KIDNEY_L: 1.1 g
  KIDNEY_R: 1.1 g
  KIDNEY_TOTAL: 2.1 g
  LIVER: 11.2 g
  A/G: 1.2
  ALP: 1508 IU/L
  ALT: 36 IU/L
  AST: 67.6 IU/L
  BUN: 16.8 mg/dL
  CRE: 0.2 mg/dL
  Ca: 10.5 mg/dL
  Cl: 107.4 meq/L
  DBIL: 0 mg/dL
  GLC: 191.6 mg/dL
  IP: 7.1 mg/dL
  K: 4.2 meq/L
  LDH: 172.8 IU/L
  Na: 142 meq/L
  PL: 153.8 mg/dL
  RALB: 2.9 g/dL
  TBIL: 0.016 mg/dL
  TC: 77.6 mg/dL
  TG: 110 mg/dL
  TP: 5.4 g/dL
  gamma-GTP: 1 IU/L
[3]
  TERMINAL_BW: 300.3 g
  APTT: 23 s
  Bas: 0%
  Eos: 0.8%
  Fbg: 323 mg/dL
  Hb: 15.4 g/dL
  Ht: 42.9%
  Lym: 79.6%
  MCH: 21.2 pg
  MCHC: 36%
  MCV: 58.8 fL
  Mono: 2.6%
  Neu: 16.4%
  PT: 15.6 s
  Plat: 117.8 x10_4/uL
  RBC: 728.8 x10_4/ul
  Ret: 4%
  WBC: 91.1 x10_2/uL
  KIDNEY_L: 1.2 g
  KIDNEY_R: 1.2 g
  KIDNEY_TOTAL: 2.3 g
  LIVER: 12.4 g
  A/G: 1.3
  ALP: 1565.4 IU/L
  ALT: 40 IU/L
  AST: 72 IU/L
  BUN: 20.6 mg/dL
  CRE: 0.2 mg/dL
  Ca: 10.7 mg/dL
  Cl: 108 meq/L
  DBIL: 0 mg/dL
  GLC: 192.8 mg/dL
  IP: 6.3 mg/dL
  K: 4.1 meq/L
  LDH: 184.8 IU/L
  Na: 142.2 meq/L
  PL: 161.6 mg/dL
  RALB: 3.3 g/dL
  TBIL: 0.012 mg/dL
  TC: 81.8 mg/dL
  TG: 123.4 mg/dL
  TP: 6 g/dL
  gamma-GTP: 1.2 IU/L
[4]
  TERMINAL_BW: 378.9 g
  APTT: 23.1 s
  Bas: 0%
  Eos: 1%
  Fbg: 321 mg/dL
  Hb: 15.6 g/dL
  Ht: 41.5%
  Lym: 83.4%
  MCH: 20.8 pg
  MCHC: 37.6%
  MCV: 55.3 fL
  Mono: 1.6%
  Neu: 13%
  PT: 16 s
  Plat: 115 x10_4/uL
  RBC: 752 x10_4/ul
  Ret: 2.9%
  WBC: 108.3 x10_2/uL
  KIDNEY_L: 1.4 g
  KIDNEY_R: 1.4 g
  KIDNEY_TOTAL: 2.9 g
  LIVER: 15.5 g
  A/G: 1.1
  ALP: 1179.4 IU/L
  ALT: 38.6 IU/L
  AST: 61.6 IU/L
  BUN: 18.6 mg/dL
  CRE: 0.2 mg/dL
  Ca: 10.7 mg/dL
  Cl: 105.2 meq/L
  DBIL: 0 mg/dL
  GLC: 191.8 mg/dL
  IP: 5.9 mg/dL
  K: 4.1 meq/L
  LDH: 165.2 IU/L
  Na: 141.6 meq/L
  PL: 157.6 mg/dL
  RALB: 3.2 g/dL
  TBIL: 0.006 mg/dL
  TC: 75.4 mg/dL
  TG: 144.6 mg/dL
  TP: 6.2 g/dL
  gamma-GTP: 1 IU/L
[5]
  TERMINAL_BW: 218.9 g
  APTT: 21 s
  Bas: 0%
  Eos: 0.8%
  Fbg: 309.2 mg/dL
  Hb: 13.8 g/dL
  Ht: 39.3%
  Lym: 80.2%
  MCH: 21 pg
  MCHC: 35%
  MCV: 60.1 fL
  Mono: 2.8%
  Neu: 15.2%
  PT: 16.1 s
  Plat: 115.7 x10_4/uL
  RBC: 655.6 x10_4/ul
  Ret: 5.8%
  WBC: 128.8 x10_2/uL
  KIDNEY_L: 0.9 g
  KIDNEY_R: 1 g
  KIDNEY_TOTAL: 1.9 g
  LIVER: 10 g
  A/G: 1.3
  ALP: 1457.8 IU/L
  ALT: 48.6 IU/L
  AST: 78.4 IU/L
  BUN: 17.8 mg/dL
  CRE: 0.2 mg/dL
  Ca: 10.8 mg/dL
  Cl: 106.8 meq/L
  DBIL: 0.004 mg/dL
  GLC: 190.2 mg/dL
  IP: 7.2 mg/dL
  K: 4.2 meq/L
  LDH: 313 IU/L
  Na: 142 meq/L
  PL: 168 mg/dL
  RALB: 3.2 g/dL
  TBIL: 0.016 mg/dL
  TC: 85.6 mg/dL
  TG: 111 mg/dL
  TP: 5.6 g/dL
  gamma-GTP: 1 IU/L
[6]
  TERMINAL_BW: 247.7 g
  APTT: 21.5 s
  Bas: 0%
  Eos: 1%
  Fbg: 301 mg/dL
  Hb: 13.7 g/dL
  Ht: 38.9%
  Lym: 81.6%
  MCH: 21.3 pg
  MCHC: 35.3%
  MCV: 60.3 fL
  Mono: 2.2%
  Neu: 14.6%
  PT: 16.1 s
  Plat: 112.9 x10_4/uL
  RBC: 645.2 x10_4/ul
  Ret: 6%
  WBC: 119.7 x10_2/uL
  KIDNEY_L: 1 g
  KIDNEY_R: 1.1 g
  KIDNEY_TOTAL: 2.1 g
  LIVER: 11 g
  A/G: 1.2
  ALP: 1691 IU/L
  ALT: 37.2 IU/L
  AST: 68.2 IU/L
  BUN: 18.6 mg/dL
  CRE: 0.2 mg/dL
  Ca: 10.7 mg/dL
  Cl: 108 meq/L
  DBIL: 0 mg/dL
  GLC: 187.8 mg/dL
  IP: 7.4 mg/dL
  K: 4.1 meq/L
  LDH: 156.8 IU/L
  Na: 142.6 meq/L
  PL: 158 mg/dL
  RALB: 3.1 g/dL
  TBIL: 0.028 mg/dL
  TC: 81.6 mg/dL
  TG: 101.2 mg/dL
  TP: 5.7 g/dL
  gamma-GTP: 1.6 IU/L
[7]
  TERMINAL_BW: 303.9 g
  APTT: 23.3 s
  Bas: 0%
  Eos: 1%
  Fbg: 309.4 mg/dL
  Hb: 14.5 g/dL
  Ht: 41.1%
  Lym: 79.8%
  MCH: 21.1 pg
  MCHC: 35.4%
  MCV: 59.5 fL
  Mono: 1.4%
  Neu: 17.4%
  PT: 15.5 s
  Plat: 132.9 x10_4/uL
  RBC: 690.8 x10_4/ul
  Ret: 4.6%
  WBC: 104.3 x10_2/uL
  KIDNEY_L: 1.2 g
  KIDNEY_R: 1.2 g
  KIDNEY_TOTAL: 2.4 g
  LIVER: 13.3 g
  A/G: 1.2
  ALP: 1333.2 IU/L
  ALT: 39.2 IU/L
  AST: 65.2 IU/L
  BUN: 18.2 mg/dL
  CRE: 0.2 mg/dL
  Ca: 10.8 mg/dL
  Cl: 107.4 meq/L
  DBIL: 0 mg/dL
  GLC: 191.6 mg/dL
  IP: 6.5 mg/dL
  K: 4.2 meq/L
  LDH: 164 IU/L
  Na: 142 meq/L
  PL: 153 mg/dL
  RALB: 3.2 g/dL
  TBIL: 0.018 mg/dL
  TC: 75.6 mg/dL
  TG: 121.4 mg/dL
  TP: 5.9 g/dL
  gamma-GTP: 1.8 IU/L
[8]
  TERMINAL_BW: 351.6 g
  APTT: 23.8 s
  Bas: 0%
  Eos: 1%
  Fbg: 294.8 mg/dL
  Hb: 15.6 g/dL
  Ht: 42.8%
  Lym: 84%
  MCH: 20.1 pg
  MCHC: 36.5%
  MCV: 55.2 fL
  Mono: 1.6%
  Neu: 12.6%
  PT: 16.3 s
  Plat: 99.5 x10_4/uL
  RBC: 776.2 x10_4/ul
  Ret: 2.5%
  WBC: 118.7 x10_2/uL
  KIDNEY_L: 1.3 g
  KIDNEY_R: 1.2 g
  KIDNEY_TOTAL: 2.5 g
  LIVER: 13.9 g
  A/G: 1.1
  ALP: 1169.6 IU/L
  ALT: 38.2 IU/L
  AST: 67.6 IU/L
  BUN: 18.8 mg/dL
  CRE: 0.2 mg/dL
  Ca: 10.3 mg/dL
  Cl: 107.6 meq/L
  DBIL: 0 mg/dL
  GLC: 190.6 mg/dL
  IP: 5.9 mg/dL
  K: 3.9 meq/L
  LDH: 137 IU/L
  Na: 142.6 meq/L
  PL: 140 mg/dL
  RALB: 3.2 g/dL
  TBIL: 0.004 mg/dL
  TC: 71.8 mg/dL
  TG: 98.6 mg/dL
  TP: 6 g/dL
  gamma-GTP: 1 IU/L
